Experimental data from US5439812A, “Antibodies catalyzing deamidation of proteins” (The Pennsylvania Research Corporation, priority 1992, dated 1995).
Counter-ions that a name gives are not always drawn. Square brackets hold non-standard residues; d marks the D form. Peptide text beside a SMILES is read from it. * marks the point of attachment. ξ: configuration not given here. NHPhenethyl = c1ccc(CCN*)cc1; ξN = NC(=O)CC(N)C(=O)O

Legend:
[1] = test system: monoclonal catalytic antibody 2E4 raised to the RG2 hapten-KLH conjugate; test: deamidation of the Asn-Gly substrate catalysed by antibody 2E4 (glutamate dehydrogenase coupled ammonia assay); assay type: biochemical, mouse
From the text: (§1) The resulting hybridomas are subjected to a preliminary screening for binding to the hapten using standard methods specifically as described in U.S. Pat. No. 5,079,152 to Benkovic et al, noted above. […] This assay is chosen to specifically screen for those antibodies which catalyze the deamidation reaction and assays by the determination of ammonia. The procedure is a modification of known procedures which use glutamate dehydrogenase to detect ammonia. (See Foncesca-Wollheim, F. Clin. Chem., […], 1483-1487 (1990), and von Anken, H. D., Schiphorst, M. E., Clinica Chimica Acta, 56, 151-157 (1974)).
The deamidation to the cyclic imide intermediate is assayed by a spectrophotometric procedure coupling the antibody-catalyzed reaction to the enzyme glutamate dehydrogenase. Glutamate dehydrogenase utilizes the ammonia produced from the antibody-catalyzed deamidation reaction to convert alpha-ketoglutarate into glutamic acid, oxidizing nicotimamide dinucleotide phosphate in the process (NADPH is oxidized to NADP). The glutamate dehydrogenase reaction is monitored spectrophotometrically.
Thirty antibodies are picked for assay for catalytic activity. The antibodies are delivered in phosphate buffered saline solutions. These are then dialyzed into bicine buffer (pH 9.0, 0.10M) and 100 uL of the dialyzed solution was then added to a solution of bicine (166 uL, pH 9.0, 0.10M). To this is added 16.5 uL of a solution containing 400 uM NADPH, α-ketoglutarate, and adenosine diphosphate. This is mixed thoroughly and then 16.5 uL of analytical grade glutamate dehydrogenase (Boehringer Mannheim) is added and the solution is again mixed thoroughly. The reaction is initiated by addition of the substrate which is stored in a DMSO solution such that the total concentration of DMSO was 5%.
The solution is then transfered to a small cuvette and the decrease in absorbance at 340 nanometers is followed over a period of several hours. Control reactions are performed under identical conditions without the addition of antibody to the reaction mixture (bicine buffer was added in place of the antibody to maintain volume). The antibody catalyzed rate is determined by subtracting the overall rate (antibody-catalyzed and spontaneous rates) from the spontaneous rate determined from the control reaction.
This is not a Vmx since the substrate was not at total saturation of the antibody. The actual rate enhancement is probably greater. […]

[2] = test system: monoclonal catalytic antibody 24C3 raised to the RG2 hapten-KLH conjugate; test: deamidation of the Asn-Gly substrate catalysed by antibody 24C3 (glutamate dehydrogenase coupled ammonia assay); assay type: biochemical, mouse
From the text: as §1
The deamidation to the cyclic imide intermediate is assayed by a spectrophotometric procedure coupling the antibody-catalyzed reaction to the enzyme glutamate dehydrogenase. […] The glutamate dehydrogenase reaction is monitored spectrophotometrically. […]
The solution is then transfered to a small cuvette and the decrease in absorbance at 340 nanometers is followed over a period of several hours. […] The antibody catalyzed rate is determined by subtracting the overall rate (antibody-catalyzed and spontaneous rates) from the spontaneous rate determined from the control reaction. […]

Structure (SMILES) | inhibition of antibody-catalysed deamidation by hapten [1] | inhibition of antibody-catalysed deamidation by hapten [2] | kcat ([1]; 2E4 investigated in more detail) | Km ([1]; 2E4 investigated in more detail, read-out: binding affinity for the substrate (Km)) [µM] | kcat ([1]; 25° C., bicine pH 9.0, substrate 451 uM, antibody 27.4 uM, not a Vmax, substrate not at total saturation) [h⁻¹] | kcat ([2]; not a true Vmax)
O=C(O)CCCC(=O)NC1CP(=O)(O)C(CC(=O)NCCc2ccccc2)C1O (stereo not drawn) [phospholane hapten, N-(Z-Phenylethyl)-[1'-hydroxyphosphol-3'-hydroxy-4'-(5-hydroxy-5-oxo-pentanoyl)amino-1'-oxo-2'-yl]acetamide disodium salt] | stoichiometrically inhibited | inhibition of this reaction with hapten |  |  |  | 
CC(=O)NC(CC(N)=O)C(=O)NCC(=O)NCCc1ccccc1 (stereo not drawn) [substrate, phenyl ethyl derivative of the asparaginyl-glycyl dipeptide] (Ac-[ξN]-Gly-NHPhenethyl) |  |  | 1.5±0.3×10^-4 s^-1 | 220 ± 10 | 0.416 | 0.352
